The values below are quoted from earlier work in patent US6635271B1, “Method for increasing the concentration of conjugated linoleic acid in milk and/or tissue fat of a ruminant” (Valio Oy, priority 1997, dated 2003).

Molecules are shown by their SMILES.

For this series the following is noted: vaccenic acid fed to mice (Santora et al. 1998).

Regarding `CCCCCC/C=C\CCCCCCCCCC(=O)O` [vaccenic acid, trans-11 isomer of octadecenoic acid], the “tissue fat CLA concentration” value was “tripled”.
